From ChEMBL document CHEMBL1201862, “PubChem BioAssay data set” (2004)
Active and inactive are the calls of the source.

What was measured:
[1] = target: Sphingosine 1-phosphate receptor 1 (Homo sapiens, UniProt P21453); assay type: functional;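 also: Tango beta-arrestin reporter U2OS cells stimulated with S1P near its EC80; inhibitor potency meaning antagonism of receptor activation by the natural agonist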
CHO = CHO cell viability loss, potency – luminescence, cytotoxicity control for TLR9-MyD88 binding inhibitor project, dose response (AID 588339); assay type: functional, cell-based, hamster; conditions: Cricetulus griseus;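 also: CHO cells stably coexpressing TLR9 and MyD88 fusions from primary screen; compound exposure lasted 48 hours before viability readout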
[2] = target: Sphingosine 1-phosphate receptor 2 (Homo sapiens, UniProt O95136); assay: Dose Response Cell Based Assay for Antagonists of the S1P2 Receptor. [Related pubchem assays: 856, 736 ]; assay type: functional
[3] = activation of miR-122 Renilla sensor silencing – cell-based, Huh7 psiCHECK-miR122, Renilla luciferase, cherry-picked, dose response (AID 651956); assay type: functional;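 also: huh7 hepatoma cells stably carrying a psiCHECK-2 miR-122 sensor plasmid; renilla luciferase signal reporting endogenous miR-122 activity after 48 h compound exposure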
Orexin receptor type 2 = Orexin receptor type 2 (Homo sapiens, UniProt O43614); assay: Counterscreen assay for antagonists of the orexin 1 receptor (OX1R; HCRTR1): Fluorescence-based cell-based dose response assay for antagonists of the orexin 2 receptor (OX2R; HCRTR2), run by assay provider.; assay type: functional
[4] = Intein inhibitors as potential Tuberculosis drugs, a cytotoxicity screen. [Related pubchem assays (depositor defined):AID2221, AID2223, AID434968, AID435010, AID449749, AID449750, AID489010]; assay type: functional
[5] = target: T1, Zinc finger protein mex-5 (Caenorhabditis elegans, UniProt Q9XUB2); assay: potency of MEX-5 RNA-binding blockers – biochemical, C. elegans, fluorescence polarization, dose response (AID 1960)
T1 sequence (Q9XUB2 whole entry): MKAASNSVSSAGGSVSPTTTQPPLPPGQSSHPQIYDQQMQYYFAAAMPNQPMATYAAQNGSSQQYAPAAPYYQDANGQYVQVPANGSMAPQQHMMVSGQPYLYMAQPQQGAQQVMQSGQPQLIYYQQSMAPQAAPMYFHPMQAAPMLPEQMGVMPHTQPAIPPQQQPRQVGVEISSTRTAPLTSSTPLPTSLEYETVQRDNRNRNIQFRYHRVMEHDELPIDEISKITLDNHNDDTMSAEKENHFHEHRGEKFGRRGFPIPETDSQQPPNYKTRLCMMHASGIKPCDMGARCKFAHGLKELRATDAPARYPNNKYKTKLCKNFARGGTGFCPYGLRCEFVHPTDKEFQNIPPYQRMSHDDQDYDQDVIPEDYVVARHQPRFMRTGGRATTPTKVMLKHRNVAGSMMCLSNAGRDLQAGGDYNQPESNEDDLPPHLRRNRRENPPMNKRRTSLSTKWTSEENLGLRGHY

ORF 73 = ORF 73 (Human herpesvirus 8, UniProt O40947); assay: KSHV LANA DNA-binding disruption – biochemical, fluorescence polarization, cherry-picked samples, dose response (AID 504725); parameters: species or system Human gammaherpesvirus 8;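 also: fluorescence polarization of a labeled DNA duplex reporting LANA DNA binding; potency is for inhibitors that block LANA binding to the DNA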
[6] = target: Apoptotic protease-activating factor 1 (Homo sapiens, UniProt O14727); assay type: functional
[7] = target: T2, Ubiquitin-conjugating enzyme E2 N (Homo sapiens, UniProt P61088); assay type: functional;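 also: Dose-response confirmation in a TR-FRET assay detecting UBC13-driven polyubiquitin chain formation, inhibition measured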
T2 sequence (P61088 whole entry): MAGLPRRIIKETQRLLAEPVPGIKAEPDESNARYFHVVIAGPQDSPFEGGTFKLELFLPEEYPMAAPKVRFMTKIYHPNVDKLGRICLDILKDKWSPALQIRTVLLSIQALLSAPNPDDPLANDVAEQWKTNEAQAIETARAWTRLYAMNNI

[8] = target: Platelet-derived growth factor receptor beta (Homo sapiens, UniProt P09619); assay type: functional;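 also: value comes from a kinome panel, with PDGFRB tested as one panel member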
[9] = target: Glycogen synthase kinase-3 alpha (Homo sapiens, UniProt P49840); assay type: functional;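 also: GSK3A result taken from a broad kinome-wide kinase panel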
[10] = target: Cyclin-dependent kinase 19 (Homo sapiens, UniProt Q9BWU1); assay: Navigating the Kinome. Panel member name: CDC2L6; assay type: functional
[11] = blockers of HIV-1 ZM109 envelope-driven cell-cell fusion – HeLa effector, CEM target cells, luciferase, cherry-pick, dose response (AID 652058); assay type: functional, cell-based;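 also: luciferase signal from HIV-1 Env mediated cell-cell fusion of effector and target cells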
[12] = mammalian cell viability loss – Alamar Blue, dry powder, cytotoxicity control for antifungal single agent project, dose response (AID 602188); assay type: functional, cell-based
[13] = viability loss in CEM21 cells – cell-based, CellTiter-Glo luminescence, cherry-picked, cytotoxicity control for viral fusion inhibitor project, dose response (AID 652042); assay type: functional;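 also: potency for signal decrease meaning cytotoxicity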
[14] = Trypanosoma cruzi growth suppression in host cells – NIH3T3 host cells, beta-gal luminescence, confirmation (AID 2044); assay type: functional, cell-based;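 also: intracellular parasites grown in NIH/3T3 mouse fibroblasts as host cells; luminescent beta-galactosidase reporter signal from transgenic T. cruzi replicating inside host cells; inhibitors lower the luminescence signal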
[15] = Counterscreen for AddAB inhibitors: absorbance-based bacterial cell-based high throughput dose response assay for inhibitors of bacterial viability. [Related pubchem assays (depositor defined):AID435030, AID449728, AID449731, AID488942, AID488955, AID488956]; assay type: functional
[16] = target: ATP-dependent molecular chaperone HSP82 (Candida albicans (strain WO-1) (Yeast), UniProt C4YTQ8); assay: steroid-induced GRE reporter decrease in yeast – S. cerevisiae, luminescence, Hsp90 inhibitor project, dose response (AID 2400); assay type: functional, cell-based;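 also: beta-galactosidase luminescence from glucocorticoid response element reporter as proxy for Hsp90 function; inhibitor potency where signal loss means Hsp90 inhibition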
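For CC50 in this document: cells exposed to compound for 72 hours before luminescence readout.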

Sphingosine 1-phosphate receptor 2, sequence (O95136 whole entry): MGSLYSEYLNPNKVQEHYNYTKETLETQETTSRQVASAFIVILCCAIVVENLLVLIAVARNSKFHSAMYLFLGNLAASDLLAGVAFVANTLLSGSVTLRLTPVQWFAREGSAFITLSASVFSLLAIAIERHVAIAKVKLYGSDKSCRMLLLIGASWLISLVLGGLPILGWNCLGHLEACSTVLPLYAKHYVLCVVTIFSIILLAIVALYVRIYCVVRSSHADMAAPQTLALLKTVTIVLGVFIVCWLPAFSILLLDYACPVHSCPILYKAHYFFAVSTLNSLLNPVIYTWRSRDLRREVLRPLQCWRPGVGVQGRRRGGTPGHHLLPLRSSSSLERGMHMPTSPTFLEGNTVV
Sphingosine 1-phosphate receptor 1, sequence (P21453 whole entry, the tested form may be a part): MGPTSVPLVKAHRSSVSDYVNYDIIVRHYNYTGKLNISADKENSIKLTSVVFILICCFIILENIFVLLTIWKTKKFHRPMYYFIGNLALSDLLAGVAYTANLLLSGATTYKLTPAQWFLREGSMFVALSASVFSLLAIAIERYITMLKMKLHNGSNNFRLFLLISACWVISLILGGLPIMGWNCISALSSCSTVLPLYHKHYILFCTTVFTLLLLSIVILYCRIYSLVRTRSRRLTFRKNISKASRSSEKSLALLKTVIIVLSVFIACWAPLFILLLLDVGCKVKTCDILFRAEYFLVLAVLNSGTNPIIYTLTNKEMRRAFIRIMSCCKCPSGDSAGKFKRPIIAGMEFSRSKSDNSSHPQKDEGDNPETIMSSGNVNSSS
Glycogen synthase kinase-3 alpha, sequence (P49840 whole entry): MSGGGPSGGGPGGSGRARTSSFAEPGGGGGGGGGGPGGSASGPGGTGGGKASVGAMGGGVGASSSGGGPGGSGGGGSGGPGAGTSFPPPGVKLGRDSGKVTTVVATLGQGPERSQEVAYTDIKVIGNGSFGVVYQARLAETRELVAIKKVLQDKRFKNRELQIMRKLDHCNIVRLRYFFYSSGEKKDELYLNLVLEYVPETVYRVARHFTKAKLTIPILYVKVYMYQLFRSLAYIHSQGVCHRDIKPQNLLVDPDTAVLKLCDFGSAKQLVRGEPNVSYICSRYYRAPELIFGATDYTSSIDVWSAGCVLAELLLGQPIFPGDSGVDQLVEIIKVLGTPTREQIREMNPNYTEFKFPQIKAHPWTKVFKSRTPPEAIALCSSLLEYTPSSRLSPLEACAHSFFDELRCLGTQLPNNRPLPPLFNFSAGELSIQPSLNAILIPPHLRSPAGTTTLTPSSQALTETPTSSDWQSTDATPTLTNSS
ORF 73, sequence (O40947 whole entry): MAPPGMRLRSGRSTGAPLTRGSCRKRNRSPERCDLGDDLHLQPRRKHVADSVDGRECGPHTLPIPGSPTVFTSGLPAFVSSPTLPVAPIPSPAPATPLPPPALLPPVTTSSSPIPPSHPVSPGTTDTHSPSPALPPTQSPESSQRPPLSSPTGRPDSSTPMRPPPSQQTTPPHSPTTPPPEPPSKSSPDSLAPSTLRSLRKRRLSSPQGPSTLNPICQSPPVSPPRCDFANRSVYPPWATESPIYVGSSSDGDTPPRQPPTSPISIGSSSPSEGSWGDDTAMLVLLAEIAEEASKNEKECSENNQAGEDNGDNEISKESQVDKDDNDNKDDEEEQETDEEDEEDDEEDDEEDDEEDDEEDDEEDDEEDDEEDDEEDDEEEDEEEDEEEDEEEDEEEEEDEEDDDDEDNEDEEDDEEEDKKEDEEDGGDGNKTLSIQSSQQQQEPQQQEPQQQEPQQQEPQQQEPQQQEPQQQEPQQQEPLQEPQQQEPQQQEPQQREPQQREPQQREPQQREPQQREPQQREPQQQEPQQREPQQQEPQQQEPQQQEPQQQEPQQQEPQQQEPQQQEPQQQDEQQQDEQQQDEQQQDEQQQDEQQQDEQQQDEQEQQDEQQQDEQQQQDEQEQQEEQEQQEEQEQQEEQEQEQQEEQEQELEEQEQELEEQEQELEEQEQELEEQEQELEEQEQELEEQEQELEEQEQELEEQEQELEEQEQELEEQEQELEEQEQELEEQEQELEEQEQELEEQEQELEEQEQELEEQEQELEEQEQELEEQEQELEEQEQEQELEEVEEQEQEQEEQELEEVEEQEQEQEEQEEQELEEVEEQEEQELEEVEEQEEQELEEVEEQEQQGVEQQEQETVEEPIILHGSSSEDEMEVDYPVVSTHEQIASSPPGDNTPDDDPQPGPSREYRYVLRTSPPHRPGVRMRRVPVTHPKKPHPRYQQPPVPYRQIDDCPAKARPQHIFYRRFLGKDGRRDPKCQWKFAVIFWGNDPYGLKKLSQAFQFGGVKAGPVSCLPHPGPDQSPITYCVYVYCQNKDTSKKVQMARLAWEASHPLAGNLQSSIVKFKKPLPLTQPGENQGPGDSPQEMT
Apoptotic protease-activating factor 1, sequence (O14727 whole entry): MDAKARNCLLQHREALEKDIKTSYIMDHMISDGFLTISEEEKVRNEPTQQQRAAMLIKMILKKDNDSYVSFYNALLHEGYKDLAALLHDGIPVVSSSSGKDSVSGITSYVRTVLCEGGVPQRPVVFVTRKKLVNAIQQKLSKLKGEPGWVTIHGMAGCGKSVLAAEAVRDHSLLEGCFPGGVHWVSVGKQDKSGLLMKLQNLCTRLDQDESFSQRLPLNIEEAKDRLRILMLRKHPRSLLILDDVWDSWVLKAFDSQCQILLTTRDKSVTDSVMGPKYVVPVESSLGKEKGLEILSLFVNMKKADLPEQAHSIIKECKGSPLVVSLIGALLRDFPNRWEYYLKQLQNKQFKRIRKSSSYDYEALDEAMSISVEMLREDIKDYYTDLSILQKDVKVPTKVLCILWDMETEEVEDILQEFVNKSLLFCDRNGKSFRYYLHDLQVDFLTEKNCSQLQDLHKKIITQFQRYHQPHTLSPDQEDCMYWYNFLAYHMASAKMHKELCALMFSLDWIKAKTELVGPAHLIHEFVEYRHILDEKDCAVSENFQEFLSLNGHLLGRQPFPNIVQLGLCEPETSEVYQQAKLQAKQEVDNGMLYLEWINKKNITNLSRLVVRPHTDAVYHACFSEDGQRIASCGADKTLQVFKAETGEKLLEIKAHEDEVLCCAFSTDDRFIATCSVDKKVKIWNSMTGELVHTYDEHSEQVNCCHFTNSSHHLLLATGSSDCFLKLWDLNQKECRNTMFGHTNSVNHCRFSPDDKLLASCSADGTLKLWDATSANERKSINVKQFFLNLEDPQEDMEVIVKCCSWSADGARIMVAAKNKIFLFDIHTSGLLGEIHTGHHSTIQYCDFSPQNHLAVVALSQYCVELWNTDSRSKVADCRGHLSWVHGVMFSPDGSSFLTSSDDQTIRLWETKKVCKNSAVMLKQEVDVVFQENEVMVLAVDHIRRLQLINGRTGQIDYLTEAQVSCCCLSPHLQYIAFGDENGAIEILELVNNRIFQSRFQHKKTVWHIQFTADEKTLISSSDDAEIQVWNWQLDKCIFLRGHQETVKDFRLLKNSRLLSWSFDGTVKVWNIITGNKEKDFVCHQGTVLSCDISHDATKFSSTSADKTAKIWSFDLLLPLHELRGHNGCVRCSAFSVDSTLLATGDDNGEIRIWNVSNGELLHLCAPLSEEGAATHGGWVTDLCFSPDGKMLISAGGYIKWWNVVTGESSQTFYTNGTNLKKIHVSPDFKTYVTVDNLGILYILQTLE
ATP-dependent molecular chaperone HSP82, sequence (C4YTQ8 whole entry): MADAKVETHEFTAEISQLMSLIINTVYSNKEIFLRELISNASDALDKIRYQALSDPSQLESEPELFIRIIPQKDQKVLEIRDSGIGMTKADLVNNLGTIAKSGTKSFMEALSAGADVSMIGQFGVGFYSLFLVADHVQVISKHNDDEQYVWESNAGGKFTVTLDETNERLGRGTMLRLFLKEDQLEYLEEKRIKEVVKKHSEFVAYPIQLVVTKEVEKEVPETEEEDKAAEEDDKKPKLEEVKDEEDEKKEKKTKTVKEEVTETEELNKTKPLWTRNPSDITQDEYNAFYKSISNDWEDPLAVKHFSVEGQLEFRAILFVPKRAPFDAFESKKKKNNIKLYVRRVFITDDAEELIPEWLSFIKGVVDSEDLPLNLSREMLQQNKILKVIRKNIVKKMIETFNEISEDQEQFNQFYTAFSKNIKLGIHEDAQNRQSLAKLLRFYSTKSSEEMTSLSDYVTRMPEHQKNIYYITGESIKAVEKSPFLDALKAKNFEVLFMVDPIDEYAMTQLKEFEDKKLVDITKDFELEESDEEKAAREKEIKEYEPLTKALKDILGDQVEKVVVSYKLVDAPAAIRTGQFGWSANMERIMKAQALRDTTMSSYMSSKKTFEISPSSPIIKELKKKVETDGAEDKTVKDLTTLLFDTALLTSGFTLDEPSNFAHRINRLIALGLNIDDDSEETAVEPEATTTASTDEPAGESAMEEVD
Orexin receptor type 2, sequence (O43614 whole entry): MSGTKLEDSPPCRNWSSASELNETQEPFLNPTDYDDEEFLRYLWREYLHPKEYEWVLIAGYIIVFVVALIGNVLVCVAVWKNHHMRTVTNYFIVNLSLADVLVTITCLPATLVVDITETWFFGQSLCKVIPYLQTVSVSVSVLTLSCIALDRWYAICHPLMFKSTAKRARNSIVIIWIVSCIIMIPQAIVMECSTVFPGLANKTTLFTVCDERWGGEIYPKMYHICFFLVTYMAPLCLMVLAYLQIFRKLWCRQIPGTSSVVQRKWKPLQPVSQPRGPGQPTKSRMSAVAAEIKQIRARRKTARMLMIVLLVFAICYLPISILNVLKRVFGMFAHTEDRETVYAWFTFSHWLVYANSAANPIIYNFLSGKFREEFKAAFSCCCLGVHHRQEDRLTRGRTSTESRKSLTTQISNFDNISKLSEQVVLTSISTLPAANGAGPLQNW

With `Cc1ccc(C(=O)OCn2ncc(Cl)c(Cl)c2=O)cc1` the IC50 [1] was 10.6 µM (not active), the IC50 (CHO) was 1.53 µM (active) and the IC50 [2] was 2.65 µM (active). For the same molecule, the AC50 [3] was 9.52 µM (active), the IC50 (Orexin receptor type 2) was > 88.8 µM (inactive) and the CC50 [4] was 2.85 µM (active).

For `O=C(O)CC(C(=O)O)N1C(=O)/C(=C/C=C/c2ccco2)SC1=S` (centres undefined), the EC50 [5] was 23.3 µM (active), the AC50 (ORF 73) was 28.9 µM (active) and the IC50 [6] was 36.6 µM (active). The IC50 [7] was > 20 µM (inactive).

With `O=C(Nc1cccc(C2Nc3ccc4ccccc4c3C3C=CCC32)c1)c1ccc(F)cc1` (centres undefined) the Ki [8] was 1.58 µM (active).

In the case of `Cc1ccc(-c2cc(-c3cc(Br)ccc3O)[nH]c(=O)c2C#N)s1`, the Ki [9] is reported as 1.58 µM (active) and the Ki [10] is reported as > 100 µM (inactive).

With `CCCC(=O)NC(c1cccs1)c1cc(Cl)c2cccnc2c1O` (centres undefined) the AC50 [11] was 15 µM (active), the AC50 [12] was 1.06 µM (active) and the AC50 [13] was 25.1 µM (active). For the same molecule, the EC50 [14] was 1.06 µM (active), the IC50 [15] was > 119 µM (inactive) and the EC50 [16] was > 150 µM (inactive).
